According to the supplement of paper PMC10307832:

Assays:
Assay in all cases: relative viability (nuclei count vs DMSO), 5 days (fraction); higher = more cells survive
[1] = compound: CCOC1=CC=CC=C1N=NC2=C(NN(C2=O)C3=NC(=CS3)C4=CC=CC=C4)C [BAM7] + O=C(c1cc(Cc2n[nH]c(=O)c3ccccc23)ccc1F)N1CCN(C(=O)C2CC2)CC1 [Olaparib] (partner 8 µM)
Procedure, shortened: (§1)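 Nuclei were stained with Hoechst during a one-step fixation (final 0.05% Triton X-100, 1% formaldehyde, 1 ug/ml Hoechst) carried out 5 days after dosing, then counted on 4× images. The cells, lung cancer lines in 1536-well plates, had been dosed by pin tool the day after seeding with one drug alone or a fixed anchor-drug dose plus five library-drug doses (not always all listed) in √10 steps. Relative viability is the nuclei count in treated wells divided by that in vehicle wells, and each value is the median of duplicate plates.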

[2] = compound: CCOC1=CC=CC=C1N=NC2=C(NN(C2=O)C3=NC(=CS3)C4=CC=CC=C4)C [BAM7] + C[C@]1(O)C[C@@H](c2nc(-c3ccc4ccc(-c5ccccc5)nc4c3)c3c(N)nccn32)C1 [Linsitinib] (partner 1 µM)
Procedure, shortened: as §1

[3] = compound: CCOC1=CC=CC=C1N=NC2=C(NN(C2=O)C3=NC(=CS3)C4=CC=CC=C4)C [BAM7] + CS(=O)(=O)CCNCc1ccc(-c2ccc3ncnc(Nc4ccc(OCc5cccc(F)c5)c(Cl)c4)c3c2)o1 [Lapatinib] (partner 2 µM)
Procedure, shortened: as §1

[4] = compound: CCOC1=CC=CC=C1N=NC2=C(NN(C2=O)C3=NC(=CS3)C4=CC=CC=C4)C [BAM7] + CC(C)C[C@H](NC(=O)[C@H](Cc1ccccc1)NC(=O)c1cnccn1)B(O)O [Bortezomib] (partner 0.002 µM)
Procedure, shortened: as §1

[5] = compound: CCOC1=CC=CC=C1N=NC2=C(NN(C2=O)C3=NC(=CS3)C4=CC=CC=C4)C [BAM7] + Cc1cc(Nc2cc(N3CCN(C)CC3)nc(Sc3ccc(NC(=O)C4CC4)cc3)n2)n[nH]1 [Tozasertib] (partner 0.1 µM)
Procedure, shortened: as §1

Row | Cell Line | relative viability ([1]; first compound 0.5 µM) | relative viability ([1]; first compound 5 µM) | relative viability ([1]; first compound 15.81 µM) | relative viability ([1]; first compound 50 µM) | relative viability ([2]; first compound 0.5 µM) | relative viability ([2]; first compound 5 µM) | relative viability ([2]; first compound 15.81 µM) | relative viability ([2]; first compound 50 µM) | relative viability ([3]; first compound 0.5 µM) | relative viability ([3]; first compound 5 µM) | relative viability ([3]; first compound 15.81 µM) | relative viability ([3]; first compound 50 µM) | relative viability ([4]; first compound 0.5 µM) | relative viability ([4]; first compound 5 µM) | relative viability ([4]; first compound 15.81 µM) | relative viability ([4]; first compound 50 µM) | relative viability ([5]; first compound 0.5 µM) | relative viability ([5]; first compound 5 µM) | relative viability ([5]; first compound 15.81 µM) | relative viability ([5]; first compound 50 µM)
1 | H3255 | 0.597 | 0.666 | 0.417 | 0.405 | 0.901 | 1.02 | 0.606 | 0.848 | 0.251 | 0.242 | 0.247 | 0.278 | 0.674 | 0.798 | 0.7 | 0.624 | 0.652 | 0.757 | 0.376 | 0.497
2 | NCI-H647 | 0.711 | 0.67 | 0.549 | 0.524 | 1.27 | 1.32 | 1.13 | 1.12 | 1.06 | 0.926 | 1.01 | 1.06 | 1.11 | 0.936 | 1.03 | 1.1 | 0.309 | 0.333 | 0.294 | 0.247
3 | NCI-H2023 | 0.475 | 0.45 | 0.363 | 0.387 | 0.657 | 0.689 | 0.64 | 0.67 | 1.05 | 0.751 | 0.737 | 1.09 | 0.988 | 0.905 | 0.92 | 1.08 | 0.234 | 0.161 | 0.125 | 0.177
4 | NCI-H23 | 0.374 | 0.271 | 0.258 | 0.291 | 0.507 | 0.663 | 0.698 | 0.679 | 1.48 | 1.1 | 0.997 | 1.26 | 1.23 | 1.05 | 0.933 | 1.12 | 0.245 | 0.367 | 0.288 | 0.256
5 | NCI-H520 | 0.401 | 0.432 | 0.342 | 0.344 | 0.916 | 1.03 | 1.08 | 0.87 | 0.804 | 0.904 | 0.93 | 1.03 | 0.625 | 0.75 | 0.441 | 0.708 | 0.416 | 0.51 | 0.436 | 0.405
6 | NCI-H460 | 0.537 | 0.438 | 0.327 | 0.344 | 1.02 | 0.765 | 0.653 | 0.754 | 0.904 | 1.13 | 0.953 | 1.03 | 1.38 | 1.1 | 1.04 | 1.01 | 0.4 | 0.0975 | 0.123 | 0.131
7 | EKVX | 0.863 | 0.929 | 0.839 | 0.788 | 1.05 | 1.04 | 0.729 | 0.831 | 0.199 | 0.201 | 0.192 | 0.507 | 1.2 | 1.15 | 0.758 | 0.986 | 0.424 | 0.36 | 0.183 | 0.333
